In this experiment the test system is warts. The experiment is described as follows: In vivo treatment of warts. Further details: species or system human. As to conditions: topical application to warts. The procedure:
A composition including an imidazoquinoline compound; and a retinoid agent was tested in vivo. Imiquimod (5% (wt/wt)) and tazarotene (0.1% (wt/wt) were combined in a 1:1 ratio. The resulting composition was topically applied to individual warts in approximately 30 patients. The patients had various types of warts (thick and thin) in varying locations including palms, soles, hands, legs, feet, trunk, and extremities (including periungual). The composition could be used occluded or non-occluded, at the patient's option.

As to `CC(C)Cn1cnc2c(N)nc3ccccc3c21` [imiquimod, 1-(2-methylpropyl)-1H-imidpzo[4,5-c]quinolin-4-amine], the “treatment result on warts (in words)” value is “not as efficacious”. The value for `CCOC(=O)c1ccc(C#Cc2ccc3c(c2)C(C)(C)CCS3)nc1` [tazarotene] was “not as efficacious”.

For the origin of these results see patent publication US10350202B2, “Composition and method for treating skin conditions” (442 Ventures, LLC, priority 2010, dated 2019).
